In patent US20210186970A1, “SELECTIVE CALCIUM CHANNEL ANTAGONISTS” (Northwestern University, priority 2011, published 2021):
Several values for one entry are separate records, joined by “and”; a condition that tells them apart may be missing. Equal entries are not always repeated.

Legend:
[1] = molecular target: T1, Cav1.3 L-type Ca channels (Rattus norvegicus, UniProt P27732); test: FLIPR Fluo-8 calcium assay, Cav1.3 channel inhibition in HEK293 cells; type: cell-based; details: for selectivity for Cav1.3 over Cav1.2: ratio of IC50 values for the two cell lines
T1 construct: expressed in transfected cells; host or cells: HEK293

[2] = molecular target: Cav1.2 L-type Ca channels (Oryctolagus cuniculus, UniProt P15381); test: FLIPR Fluo-8 calcium assay, Cav1.2 channel inhibition in HEK293 cells
[3] = molecular target: T2, Cav1.3 (α1D) LTCC (Rattus norvegicus, UniProt P27732); test: Whole-cell voltage-clamp recordings, Cav1.3 LTCC in HEK293 cells; type: cell-based
T2 construct: expressed in transfected cells; host or cells: HEK-293, stably transfected
Protocol: (§1) Using the same cell lines from the initial screening, whole-cell voltage clamp recordings were made of either Cav1.3 LTCC or Cav1.2 LTCC containing HEK293 cells in the absence or presence of SKP00 4C08 at 1 μM. Bath application of SKP00 4C08 blocks ˜35% of the Cav1.3 channel current. SKP00 4C08 at the same concentration had no effect on Cav1.2 channel currents.
(§2) Bioactivity Confirmation Using Whole-cell Patch Clamp. Because IC50 values depend strongly on assay conditions, the inhibitory activity of compound 8 (SKP00 4C08) was confirmed at Cav1.3 and Cav1.2 channels in HEK293 cells by whole-cell voltage-clamp electrophysiological recordings (FIG. 8).
(§3) Whole-cell voltage-clamp recordings (FIG. 8A) were made in the absence (black, top) or presence (red, top) of compound 8 (SKP00 4C08) (5 μM). Superfusion of selected PYT blocks evoked barium currents in both LTCC cell lines in keeping with the data from our initial screen (FIG. 5B).
General Procedure for Whole-cell Patch Clamp. HEK-293 cells were stably transfected with rat Cav1.3 (α1D) or rabbit Cav1.2 (α1C), Cavβ3, and Cavα2δ-1 and were cultured as previously reported (Chan et al. (2007) Nature 447:1081-1086.; herein incorporated by reference in its entirety). After 24-48 h of incubation at 37° C., cells underwent whole-cell patch-clamp electrophysiology. The external solution contained the following (in mM): 140 NaCl, 1 MgCl2, 10 BaCl2, 10 HEPES, 10 dextrose, 10 sucrose, and 20 CsCl at pH 7.4 and an osmolarity of ˜320 mOSml^−1. The test compound stock solutions in DMSO (10 mM or just DMSO) were diluted with the external solution to the desired concentration (10^−9 to 10^−6M), which was perfused (2 mL/min) into the bath while measuring the evoked barium currents. For experiments where dose-response curves were obtained, local perfusion of the desired concentration was employed. Barium currents were measured from whole-cell voltage patch-clamp recordings using a Pulse 8.4 software data acquisition system (HEKA, Germany). […] Electrophysiological signals were analyzed using […] […]

[4] = molecular target: T3, Cav1.2 (α1C) L-type calcium channel (Oryctolagus cuniculus, UniProt P15381); test: Whole-cell voltage-clamp recordings, Cav1.2 LTCC in HEK293 cells; type: cell-based, rabbit; details: rabbit, pH 7.4; 5 μM, whole-cell voltage clamp; read-out: inhibition of Cav1.2 channels
T3 construct: expressed in transfected cells; host or cells: HEK-293, stably transfected
Protocol: as §1, §2, §3
(§4) General Procedure for Whole-cell Patch Clamp. […] Barium currents were measured from whole-cell voltage patch-clamp recordings using a Pulse 8.4 software data acquisition system (HEKA, Germany). […] Electrophysiological signals were analyzed using […] […]

[5] = molecular target: T4, Cav1.2 (α1C) LTCC (Oryctolagus cuniculus, UniProt P15381); test: as above; type: cell-based, rabbit; details: 1 μM
T4 construct: expressed in transfected cells; host or cells: HEK-293, stably transfected
Protocol: as §1, §2, §3, §4

[6] = IC50 (μM) Cav1.3, Table 4, 12 concentration points (0.1 nM~100 μM) in duplicate
[7] = Table 4, Cav1.3 relative to Cav1.2 from IC50 values
[8] = IC50 (μM) Cav1.2, Table 4, 12 concentration points (0.1 nM~100 μM) in duplicate
[9] = IC50 (μM) Cav1.3, second library, FLIPR, HEK293, value (±SD)
[10] = second library, ratio of IC50 Cav1.2 to Cav1.3
[11] = IC50 (μM) Cav1.2, second library, FLIPR, HEK293, value (±SD)
[12] = IC50 (μM) Cav1.3, third library, FLIPR, HEK293, value (±SD)
[13] = third library, ratio of IC50 Cav1.2 to Cav1.3
[14] = IC50 (μM) Cav1.2, third library, FLIPR, HEK293, value (±SD)

Sequence of Cav1.2 L-type Ca channels (P15381 whole entry): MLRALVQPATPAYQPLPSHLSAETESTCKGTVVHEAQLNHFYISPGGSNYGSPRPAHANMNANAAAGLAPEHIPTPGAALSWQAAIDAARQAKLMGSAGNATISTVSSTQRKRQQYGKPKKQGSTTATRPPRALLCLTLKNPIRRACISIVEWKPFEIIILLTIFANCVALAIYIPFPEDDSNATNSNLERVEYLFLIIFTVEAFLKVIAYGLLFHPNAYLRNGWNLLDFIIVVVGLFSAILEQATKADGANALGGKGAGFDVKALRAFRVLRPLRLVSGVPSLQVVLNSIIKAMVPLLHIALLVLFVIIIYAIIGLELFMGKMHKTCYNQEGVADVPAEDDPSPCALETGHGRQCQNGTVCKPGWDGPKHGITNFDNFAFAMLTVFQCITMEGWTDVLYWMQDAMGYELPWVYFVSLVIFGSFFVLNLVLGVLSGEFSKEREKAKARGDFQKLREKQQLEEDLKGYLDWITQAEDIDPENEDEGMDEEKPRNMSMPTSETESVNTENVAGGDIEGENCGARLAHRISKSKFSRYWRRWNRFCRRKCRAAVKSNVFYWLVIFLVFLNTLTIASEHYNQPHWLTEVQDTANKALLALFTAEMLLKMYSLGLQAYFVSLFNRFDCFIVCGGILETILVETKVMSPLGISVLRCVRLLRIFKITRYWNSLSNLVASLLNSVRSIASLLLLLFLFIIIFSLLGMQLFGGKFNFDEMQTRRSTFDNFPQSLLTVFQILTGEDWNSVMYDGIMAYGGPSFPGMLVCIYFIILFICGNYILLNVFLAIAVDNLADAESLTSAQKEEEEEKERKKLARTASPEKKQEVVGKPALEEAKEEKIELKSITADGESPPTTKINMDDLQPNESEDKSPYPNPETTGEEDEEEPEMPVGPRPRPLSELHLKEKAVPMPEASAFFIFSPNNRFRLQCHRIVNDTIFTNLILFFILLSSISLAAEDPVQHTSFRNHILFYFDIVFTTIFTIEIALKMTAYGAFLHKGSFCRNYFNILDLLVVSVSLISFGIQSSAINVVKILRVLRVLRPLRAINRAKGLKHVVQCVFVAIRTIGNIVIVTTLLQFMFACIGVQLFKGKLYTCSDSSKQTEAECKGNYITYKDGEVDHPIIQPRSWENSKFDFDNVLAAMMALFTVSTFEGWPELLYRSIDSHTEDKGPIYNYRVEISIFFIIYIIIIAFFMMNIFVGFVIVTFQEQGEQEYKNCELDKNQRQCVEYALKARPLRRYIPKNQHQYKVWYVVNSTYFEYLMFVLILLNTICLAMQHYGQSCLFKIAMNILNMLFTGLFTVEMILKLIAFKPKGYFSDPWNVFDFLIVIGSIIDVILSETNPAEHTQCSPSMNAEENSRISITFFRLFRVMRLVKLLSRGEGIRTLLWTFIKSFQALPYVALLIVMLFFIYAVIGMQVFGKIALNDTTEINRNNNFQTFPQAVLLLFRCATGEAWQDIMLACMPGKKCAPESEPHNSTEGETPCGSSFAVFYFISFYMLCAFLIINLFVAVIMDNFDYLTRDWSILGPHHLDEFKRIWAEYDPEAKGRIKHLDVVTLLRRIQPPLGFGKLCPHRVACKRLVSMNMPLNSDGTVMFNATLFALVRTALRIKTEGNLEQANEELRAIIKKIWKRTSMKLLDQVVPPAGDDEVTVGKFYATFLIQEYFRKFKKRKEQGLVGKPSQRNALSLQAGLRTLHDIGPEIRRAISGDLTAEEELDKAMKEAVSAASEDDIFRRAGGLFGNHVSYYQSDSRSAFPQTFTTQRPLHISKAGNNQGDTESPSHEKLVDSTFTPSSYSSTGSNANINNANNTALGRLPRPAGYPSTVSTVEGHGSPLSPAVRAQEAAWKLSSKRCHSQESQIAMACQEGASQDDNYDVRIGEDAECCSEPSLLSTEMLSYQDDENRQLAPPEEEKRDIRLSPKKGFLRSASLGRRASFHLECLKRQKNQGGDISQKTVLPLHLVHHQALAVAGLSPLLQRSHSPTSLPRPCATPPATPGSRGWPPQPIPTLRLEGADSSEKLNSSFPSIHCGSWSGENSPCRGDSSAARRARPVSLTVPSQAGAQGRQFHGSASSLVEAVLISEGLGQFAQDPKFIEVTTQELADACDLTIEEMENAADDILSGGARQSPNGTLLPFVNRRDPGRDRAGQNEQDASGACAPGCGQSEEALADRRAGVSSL
Sequence of Cav1.2 L-type Ca channels (P54284 whole entry partner): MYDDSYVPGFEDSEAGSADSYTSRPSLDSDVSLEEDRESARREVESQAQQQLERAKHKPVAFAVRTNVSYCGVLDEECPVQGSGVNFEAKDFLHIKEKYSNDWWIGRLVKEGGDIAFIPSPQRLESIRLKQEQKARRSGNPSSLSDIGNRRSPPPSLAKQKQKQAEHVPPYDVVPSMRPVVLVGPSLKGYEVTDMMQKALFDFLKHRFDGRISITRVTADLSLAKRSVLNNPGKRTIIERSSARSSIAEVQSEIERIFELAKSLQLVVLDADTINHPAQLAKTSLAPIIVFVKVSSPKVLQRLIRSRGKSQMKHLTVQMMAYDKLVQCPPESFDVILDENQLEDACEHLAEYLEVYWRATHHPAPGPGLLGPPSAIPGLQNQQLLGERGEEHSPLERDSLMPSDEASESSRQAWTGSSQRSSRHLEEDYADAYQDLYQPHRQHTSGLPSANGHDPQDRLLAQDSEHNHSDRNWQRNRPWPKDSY
Sequence of Cav1.2 L-type Ca channels (P54289 25-956 partner limits assumed): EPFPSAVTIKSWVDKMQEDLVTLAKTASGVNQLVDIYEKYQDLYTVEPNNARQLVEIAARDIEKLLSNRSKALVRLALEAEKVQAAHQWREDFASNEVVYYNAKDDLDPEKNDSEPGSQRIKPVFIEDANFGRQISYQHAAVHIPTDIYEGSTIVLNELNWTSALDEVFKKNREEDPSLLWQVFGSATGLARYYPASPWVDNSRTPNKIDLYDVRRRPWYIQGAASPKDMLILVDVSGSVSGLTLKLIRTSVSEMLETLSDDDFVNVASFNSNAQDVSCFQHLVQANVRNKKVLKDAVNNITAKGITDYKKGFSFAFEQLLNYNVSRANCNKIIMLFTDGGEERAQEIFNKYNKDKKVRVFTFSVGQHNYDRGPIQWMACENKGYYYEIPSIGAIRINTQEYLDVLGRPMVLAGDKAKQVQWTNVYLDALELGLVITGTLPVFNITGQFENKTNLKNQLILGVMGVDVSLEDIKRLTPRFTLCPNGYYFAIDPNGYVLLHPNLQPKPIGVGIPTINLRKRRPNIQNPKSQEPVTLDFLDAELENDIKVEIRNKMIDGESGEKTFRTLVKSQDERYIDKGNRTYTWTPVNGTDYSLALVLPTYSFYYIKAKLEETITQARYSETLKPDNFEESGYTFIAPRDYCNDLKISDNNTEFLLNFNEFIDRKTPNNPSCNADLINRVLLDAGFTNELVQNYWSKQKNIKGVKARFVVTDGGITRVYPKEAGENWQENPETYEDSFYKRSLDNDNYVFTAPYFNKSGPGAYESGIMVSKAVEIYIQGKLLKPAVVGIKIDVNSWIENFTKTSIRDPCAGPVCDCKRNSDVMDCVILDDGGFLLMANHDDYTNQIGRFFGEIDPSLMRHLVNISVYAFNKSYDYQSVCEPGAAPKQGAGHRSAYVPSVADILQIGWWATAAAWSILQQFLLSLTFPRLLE
Sequence of Cav1.2 L-type Ca channels (P54289 957-1103 partner limits assumed): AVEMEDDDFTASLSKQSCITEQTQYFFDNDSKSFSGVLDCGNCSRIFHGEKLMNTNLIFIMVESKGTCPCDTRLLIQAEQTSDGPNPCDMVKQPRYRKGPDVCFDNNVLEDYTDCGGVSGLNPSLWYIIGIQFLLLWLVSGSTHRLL
T4 sequence (P15381 whole entry): as the sequence (P15381 whole entry) above
T4 sequence (P54284 whole entry partner): as the sequence (P54284 whole entry partner) above
T4 sequence (P54289 25-956 partner limits assumed): as the sequence (P54289 25-956 partner limits assumed) above
T4 sequence (P54289 957-1103 partner limits assumed): as the sequence (P54289 957-1103 partner limits assumed) above
T3 sequence (P15381 whole entry): as the sequence (P15381 whole entry) above
T3 sequence (P54284 whole entry partner): as the sequence (P54284 whole entry partner) above
T3 sequence (P54289 25-956 partner limits assumed): as the sequence (P54289 25-956 partner limits assumed) above
T3 sequence (P54289 957-1103 partner limits assumed): as the sequence (P54289 957-1103 partner limits assumed) above

O=C1CC(=O)N(C2CCCCC2)C(=O)N1CCc1cccc(Cl)c1 [Compound 3, N-(3-chlorophenethyl)-N′-cyclohexyl-pyrimidine-2,4,6-(1H,3H,5H)-trione]
IC50 ([1]; IC50 (μM) CaV1.3, first library, FLIPR, HEK293, value (±SD)): 1.4 µM
IC50 [1, 6]: 1.4 µM
Selectivity [1, 7]: 38
Selectivity ([1]; first library, ratio of IC50 Cav1.2 to Cav1.3): 38.0
melting point: 153 to 154 °C
IC50 ([2]; IC50 (μM) CaV1.2, first library, FLIPR, HEK293, value (±SD)): 53.1 µM
IC50 [2, 8]: 53.1 µM

Cc1cccc(CCN2C(=O)CC(=O)N(C3CCCCC3)C2=O)c1 [Compound 4, N-cyclohexyl-N′-(3-methylphenethyl)-pyrimidine-2,4,6-(1H,3H,5H)-trione]
IC50 [1, 6]: 2.2 µM
IC50 [1, 9]: 2.2 µM
Selectivity [1, 7]: 35
Selectivity [1, 10]: 35.4
melting point: 182 to 183 °C
IC50 [2, 8]: 77.1 µM
IC50 [2, 11]: 77.1 µM

O=C1CC(=O)N(C2CCCCC2)C(=O)N1CCc1cccc(Br)c1 [Compound 5, N-(3-bromophenethyl)-N′-cyclohexyl-pyrimidine-2,4,6-(1H,3H,5H)-trione]
IC50 [1, 6]: 1.3 µM
IC50 [1, 9]: 1.3 µM
Selectivity [1, 7]: 34
Selectivity [1, 10]: 34.0
melting point: 154 to 155 °C
IC50 [2, 8]: 45.8 µM
IC50 [2, 11]: 45.8 µM

O=C1CC(=O)N(C2CCCCC2)C(=O)N1CCc1cccc(C(F)(F)F)c1 [Compound 6, N-cyclohexyl-N′-(3-thrifluoromethylphenethyl)-pyrimidine-2,4,6-(1H,3H,5H)-trione]
IC50 [1, 6]: 1.3 µM
IC50 [1, 9]: 1.3 µM
Selectivity [1, 7]: 20
Selectivity [1, 10]: 20.3
melting point: 105 to 107 °C
IC50 [2, 8]: 25.8 µM
IC50 [2, 11]: 25.8 µM

O=C1CC(=O)N(C2CCCC2)C(=O)N1CCc1cccc(C(F)(F)F)c1 [Compound 7, N-cyclopentyl-N′-(3-thrifluoromethylphenethyl)-pyrimidine-2,4,6-(1H,3H,5H)-trione]
IC50 [1, 6]: 1.1 µM
IC50 [1, 12]: 1.1 µM
Selectivity [1, 7]: 305
Selectivity [1, 13]: 305.4
melting point: 97 to 98 °C
IC50 [2, 8]: 326 µM
IC50 [2, 14]: 326 µM

O=C1CC(=O)N(C2CCCC2)C(=O)N1CCc1cccc(Cl)c1 [Compound 8, N-(3-chlorophenethyl)-N′-cyclopentyl-pyrimidine-2,4,6-(1H,3H,5H)-trione]
IC50 [1, 6]: 1.7 µM
IC50 [1, 12]: 1.7 µM
IC50 ([1]; IC50 with Cav1.3): 1.61 µM and 1.7 µM
Selectivity [1, 7]: 1008
inhibition ratio Cav1.3 vs Cav1.2, FLIPR assay ([1]; at 5.5 (unit not given)): 11 fold
selectivity for Cav1.3 over Cav1.2 [1]: 1000 fold
selectivity for Cav1.3 over Cav1.2 ([1]; listed as SKP00 4C08): greater than 1000 fold
Selectivity [1, 13]: 1008.2
block of Cav1.3 channel current ([3]; 1 μM, bath application): ~35%
inhibition ratio Cav1.3 vs Cav1.2 ([3]; 5 μM, whole-cell voltage clamp): roughly 12 fold
inhibition at 5 µM ([3]; HEK293, 5 μM, whole-cell voltage clamp, read-out: inhibition of Cav1.3 channels): 43.8 ± 11%
inhibition at 5 µM [4]: 3.8 ± 2.9%
effect on Cav1.2 channel currents [5]: no effect
melting point: 131 to 132 °C
IC50 [2, 8]: 1730 µM
IC50 [2, 14]: 1730 µM
